Results on 2 compounds are retold here after patent US20230330243A1, “COMBINATION OF ANTIBODY-DRUG CONJUGATE AND ATR INHIBITOR” (Daiichi Sankyo Company, Limited, priority 2020, published 2023).

Counter-ions that a name gives are not always drawn. Bounds are passed on as bounds.

The subject of assay [1] is ATR pathway in NCI-N87 (gastric cancer) cells. Briefly: Antibody blots of ATR signaling (Example 6). In kind it is cell-based. The procedure:
(§1) Gastric cancer NCI-N87 and breast carcinoma KPL4 cell lines were cultured in RPMI 1640 supplemented with 10 % FCS in a humidified incubator at 37° C. with 5% CO2. Cells were plated in 6-well plates at optimal density to allow linear proliferation for the duration of the assay. […] 7 h, 24 h or 48 h after dosing, whole-cell extracts were obtained by lysis in 50 mM Tris-HC1 pH 7.5, 2% SDS containing protease and phosphatase inhibitors. Lysates were boiled for 5 minutes at 95° C. Protein concentration was measured using a Nanodrop at […] and 50 µg of lysate were loaded in 4-12% Bis Tris gels. Proteins were transferred using iblot2. Primary antibodies (see Table 7) were incubated overnight at 4° C. in 3% milk TBS-tween 0.05% and HRP-conjugated secondary antibodies for 1h at room temperature. Blots were imaged using a G-box.

The test system of assay [2] is ATR pathway in KPL4 (breast carcinoma) cells. Briefly: Antibody blots of ATR signaling (Example 6). In kind it is cell-based. The protocol: as §1
Assay [3] relates to DU145-SLFN11 KO (CRISPR-Cas9 gene knockout of SLFN11). Nature of the assay: Nuclear cell count growth inhibition, 4 to 8 days (Example 4). In kind it is cell-based. As to conditions: Prostate, HER2 Low, monotherapy. The protocol:
(§2) Cells grown in their respective conditions were plated in 96-well plates at optimal density to allow linear proliferation for the duration of the assay (4 to 8 days; duration of treatment is dependent on the growth rate of each cell line). Immediately after plating, the cells were dosed with the indicated compounds for a total volume of 200 µL/well and placed in the incubator. Combinations were conducted as a 6 × 8 concentration response matrix for each combination. At the endpoint, the cells were fixed in 2% PFA for 20 minutes at room temperature. In order to obtain the number of cells at the start of treatment, one additional plate was used for each experiment and fixed after cells attached. The cells were then permeabilised in 0.5% Triton-X100 in PBS for 10 minutes. After a PBS wash, the cells were blocked in 5% FBS in PBS 1h at RT and incubated with primary antibodies in 5% FBS + 0.05% triton overnight at 4° C. After 3 washes in PBS cells were incubated with secondary antibodies in 5% FBS + 0.05% triton with Hoechst33258 for 1h at room temperature. After 3 washes in PBS, the cells were scanned with a Cellinsight instrument with a 10× objective and 9 fields/well. Images were analysed using Columbus for cell count based on nuclear Hoechst staining and nuclear intensity of other biomarkers investigated. […]

The next assay relates to MDA-MB-468. Nature of the assay: Nuclear cell count growth inhibition / synergy and IF biomarkers, 4 to 8 days (Example 4). In kind it is cell-based. The protocol: (§3) Cells grown in their respective conditions were plated in 96-well plates at optimal density to allow linear proliferation for the duration of the assay (4 to 8 days; duration of treatment is dependent on the growth rate of each cell line). Immediately after plating, the cells were dosed with the indicated compounds for a total volume of 200 µL/well and placed in the incubator. Combinations were conducted as a 6 × 8 concentration response matrix for each combination. At the endpoint, the cells were fixed in 2% PFA for 20 minutes at room temperature. In order to obtain the number of cells at the start of treatment, one additional plate was used for each experiment and fixed after cells attached. The cells were then permeabilised in 0.5% Triton-X100 in PBS for 10 minutes. After a PBS wash, the cells were blocked in 5% FBS in PBS 1h at RT and incubated with primary antibodies in 5% FBS + 0.05% triton overnight at 4° C. After 3 washes in PBS cells were incubated with secondary antibodies in 5% FBS + 0.05% triton with Hoechst33258 for 1h at room temperature. After 3 washes in PBS, the cells were scanned with a Cellinsight instrument with a 10× objective and 9 fields/well. Images were analysed using Columbus for cell count based on nuclear Hoechst staining and nuclear intensity of other biomarkers investigated. The total cell count/well was used to calculate the relative growth in each well compared to solvent control. […] The mean/well of the sum of the nuclear intensity of the IF biomarkers was also expressed relative to solvent control.

Another assay deals with KPL4. The description is as above. In kind it is cell-based. The protocol: as §3
For assay [4], the system named is NCI-N87 tumors implanted subcutaneously. Briefly: NCI-N87 xenograft tumor growth inhibition (Example 5). In kind it is in vivo, Female Nude mice. As to conditions: AZD6738 25 mg/kg PO BID (14 d-on/14-d off); day 40 post treatment.
The subject of another assay is NCI-N87. Briefly: Nuclear cell count growth inhibition, 4 to 8 days (Example 4). In kind it is cell-based. The settings on record: Homo sapiens; NCI-N87, Gastric, HER2 High; monotherapy. The protocol: as §2
The subject of another assay is JIMT-1. Briefly: Nuclear cell count growth inhibition / synergy, 4 to 8 days (Example 4). In kind it is cell-based. The settings on record: Homo sapiens; JIMT-1, Breast, HER2 Expressed; monotherapy. The protocol:
as §2

The subject of the next assay is SK-OV-3. Described as above. In kind it is cell-based. The settings on record: Homo sapiens; SK-OV-3, Ovarian, HER2 Moderate; monotherapy. The procedure:
as §2

[5] abbreviates: DS-8201 at 30 µg/mL or exatecan mesylate alone, 7 h, 24 h or 48 h.
Setting [6] is: AZD6738 at 1 µM in combination with DS-8201 or exatecan mesylate.

For `CC[C@@]1(O)C(=O)OCc2c1cc1n(c2=O)Cc2c-1nc1cc(F)c(C)c3c1c2[C@@H](N)CC3` [Exatecan mesylate, (1S,9S)-1-amino-9-ethyl-5-fluoro-1,2,3,9,12,15-hexahydro-9-hydroxy-4-methyl-10H,13H-benzo[de]pyrano[3′,4′:6,7]indolizino[1,2-b]quinolin-10,13-dione, reference compound], the “ATR pathway (pATR-T1989, pChk1-S345) and cell cycle arrest (pCdc2-Y15)” value in assay [1] (setting [5]) and in assay [2] (setting [5]) was “induced activation of the ATR pathway” throughout. Further, the GI50 in [3] was 0.00045 µM. The “Combination activity with AZD6738 (in words)” value was “still showed combination activity” in the assay with MDA-MB-468 (HER2-negative MDA-MB-468, in combination with AZD6738); “synergistic activity and cell death” in the assay on KPL4 (high-HER2 KPL4, in combination with AZD6738, clinically relevant concentrations). Further, in the assay with KPL4 (KPL4, single agent), the “Biomarkers of ATM (KAP1 pSer824) activation and DNA strand breaks (γH2AX)” value is reported as “induced in a concentration dependent manner”.
As to `C[C@@H]1COCCN1c1cc(C2([S@](C)(=N)=O)CC2)nc(-c2ccnc3[nH]ccc23)n1` [AZD6738, 4-{4-[(3R)-3-methylmorpholin-4-yl]-6-[1-((R)-S-methylsulfonimidoyl)cyclopropyl]pyrimidin-2-yl}-1H-pyrrolo[2,3-b]pyridine], in assay [4], the “Best response %TGI/regression (maximum TGI)” value is given as 62%. Further, the “Activation of pATR and pChk1 and cell cycle arrest induced by DS-8201 or exatecan mesylate” value was “inhibited the activation of pATR and pChk1 and cell cycle arrest” in assay [1] (AZD6738 at 1 µM in combination); “inhibited the activation of pATR and pChk1 and cell cycle arrest” in [2] (AZD6738 at 1 µM in combination). Also, the “Cell death (cCasp3)” value in assay [1] (setting [6]) and in [2] (setting [6]) was “increased cell death” throughout. Also, the “DNA damage (pKap1, gH2AX)” value in assay [1] (setting [6]) and in assay [2] (setting [6]) was “exacerbating the DNA damage” in each case. In addition, the GI50 was 0.436 µM in the assay with NCI-N87; 2.07 µM in the assay with MDA-MB-468 (Homo sapiens, MDA-MB-468, Breast, HER2 Low, monotherapy); above 3 µM with KPL4 (KPL4, Breast, HER2 High, monotherapy); 0.788 µM in the assay on JIMT-1; 1.01 µM with SK-OV-3.
